Experimental data from PubChem BioAssay (NCI).
Several values for one entry are separate records, joined by “and”; a condition that tells them apart may be missing. Identical values can stand only once.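 Five concentrations, 48 hours, 96-well plates. GI50 = concentration required for 50% inhibition of growth. The concentration for full growth arrest is given as TGI.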

Key:
Experiment in all cases: growth of human tumour cells (NCI), 48 h
OVCAR-3 ovarian = test system: OVCAR-3 ovarian
HCC-2998 colon = test system: HCC-2998 colon
LOX IMVI melanoma = test system: LOX IMVI melanoma
IGROV1 ovarian = test system: IGROV1 ovarian
DU-145 prostate = test system: DU-145 prostate
OVCAR-5 ovarian = test system: OVCAR-5 ovarian
SW-620 colon = test system: SW-620 colon
CAKI-1 renal = test system: CAKI-1 renal
PC-3 prostate = test system: PC-3 prostate
NCI/ADR-RES ovarian = test system: NCI/ADR-RES ovarian

SMILES	GI50 (OVCAR-3 ovarian)	TGI (OVCAR-3 ovarian)	GI50 (HCC-2998 colon)	TGI (HCC-2998 colon)	GI50 (LOX IMVI melanoma)	TGI (LOX IMVI melanoma)	GI50 (IGROV1 ovarian)	TGI (IGROV1 ovarian)	GI50 (DU-145 prostate)	TGI (DU-145 prostate)	GI50 (OVCAR-5 ovarian)	TGI (OVCAR-5 ovarian)	GI50 (SW-620 colon)	TGI (SW-620 colon)	GI50 (CAKI-1 renal)	TGI (CAKI-1 renal)	GI50 (PC-3 prostate)	TGI (PC-3 prostate)	GI50 (NCI/ADR-RES ovarian)	TGI (NCI/ADR-RES ovarian)
Cc1ccc(Cl)cc1Nc1nc(C(F)(F)F)ccc1C(=O)Nc1cccc(C(F)(F)F)c1	4.18 µM	20.1 µM	1.78 µM	4.46 µM	3.73 µM	13.2 µM	1.69 µM	13.4 µM	4.76 µM	16.6 µM	2.59 µM	11.4 µM	4.55 µM	19.1 µM	4.14 µM	18.1 µM	2.07 µM	13.4 µM	2.13 µM	7.66 µM
C=C(CN1CCN(c2ccccc2OC)CC1)c1ccc(C(=O)Nc2ccccc2N)cc1	5.64 µM	19.7 µM	0.27 µM	0.452 µM	0.243 µM	1.42 µM	9.54 µM	30.6 µM	3.8 µM	39.5 µM	7.56 µM	22.8 µM	2.1 µM	> 50 µM	3.86 µM	14.3 µM	9.64 µM	> 50 µM	0.143 µM	1.56 µM
CCSc1oc(-c2ccccc2)nc1[P+](c1ccccc1)(c1ccccc1)c1ccccc1	0.268 µM	1.7 µM	0.418 µM	2.16 µM	0.184 µM	0.412 µM	0.285 µM	1.53 µM	0.314 µM	2.63 µM	0.416 µM	6.36 µM	0.305 µM	7.32 µM	0.79 µM	2.66 µM	0.213 µM	1.44 µM	2.29 µM	9.58 µM
CCOC1OCCCC1Br (stereo unspecified)		> 100 µM		> 100 µM		> 100 µM		> 100 µM		> 100 µM		> 100 µM		> 100 µM		> 100 µM		> 100 µM		> 100 µM
COc1ccc(-c2oc(=O)ccc2C#Cc2cc(OC)c(OC)c(OC)c2)cc1O	20.9 µM	70.6 µM			24.2 µM	> 100 µM	39.9 µM	> 100 µM	38.6 µM	> 100 µM	> 100 µM	> 100 µM	31.1 µM	> 100 µM	32.8 µM	> 100 µM	23.3 µM	> 100 µM	24.4 µM	> 100 µM
Nc1[nH]c(=O)ncc1F		> 100 µM		> 100 µM		> 100 µM		> 100 µM		> 100 µM		> 100 µM		> 100 µM		> 100 µM		> 100 µM		> 100 µM
O=C(O)c1c(O)c2cc(Br)ccc2oc1=O		> 100 µM		> 100 µM		> 100 µM		> 100 µM		> 100 µM		> 100 µM		> 100 µM		> 100 µM		> 100 µM		> 100 µM
CCN(CC)CCN1C(=O)c2c(c(C)c3c(oc4cc(O)ccc43)c2C)C1=O	1.78 µM	3.34 µM	1.62 µM	3.03 µM	1.7 µM	3.18 µM	1.6 µM	3.17 µM	1.72 µM	3.41 µM	1.66 µM	3.04 µM			1.66 µM	3.06 µM	1.5 µM	3.22 µM	1.66 µM	3.26 µM
Cn1nc(C(F)(F)F)c(-c2ccc(Cl)c(C(F)(F)F)c2)c1-c1ccc(OCc2ccc(Cl)cc2)cc1O	1.66 µM	5.8 µM	1.88 µM	6.73 µM	1.58 µM	5.73 µM	2.18 µM	8.47 µM	2.03 µM	7.47 µM	1.83 µM	8.26 µM	1.84 µM	7.28 µM	1.48 µM	5.62 µM	1.66 µM	6.68 µM	1.56 µM	4.99 µM
COc1ccc2c(c1)CCC1C2CC[C@@]2(C)C1CC[C@@]2(O)CNC(=O)/C=C/c1ccc(O)c(OC)c1 (stereo partly specified)	37.5 µM	> 100 µM	17.7 µM	33.7 µM	7.76 µM	20.5 µM	4.66 µM	> 100 µM	36.6 µM	> 100 µM	45.5 µM	> 100 µM	58.4 µM	> 100 µM	21.9 µM	> 100 µM	12.1 µM	83.8 µM	12.5 µM	83.4 µM
CCCS(=O)(=O)Nc1ccc(F)c(C(=O)c2c[nH]c3ncc(-c4ccc(Cl)cc4)cc23)c1F	7.65 µM and > 8.66 µM	25.5 µM and > 10 µM	5.59 µM and 10 µM	17.9 µM and > 10 µM	1.47 µM and 1.27 µM	15.2 µM and > 10 µM	3.52 µM and 3.63 µM	14.4 µM and > 10 µM	5.62 µM and 7.49 µM	19.7 µM and > 10 µM	10.2 µM and > 9.13 µM	30 µM and > 10 µM	10 µM and > 8.98 µM	27.3 µM and > 10 µM	2.63 µM and 2.81 µM	16.5 µM and > 10 µM	2.98 µM and 6.01 µM	16.7 µM and > 10 µM	6.75 µM and > 10 µM	31.6 µM and > 10 µM
COC(=O)c1c[nH]c(=O)[nH]c1=O		> 100 µM		> 100 µM		> 100 µM		> 100 µM		> 100 µM		> 100 µM		> 100 µM		> 100 µM		> 100 µM		> 100 µM
COc1cc(C)c(C(=O)O[C@H]2[C@H](O[C@H]3[C@@H](O)COC(O[C@H]4C[C@H]5[C@@H]6CC=C7C[C@@H](O)CC[C@]7(C)[C@H]6CC[C@]5(C)[C@H]4[C@H](C)C(=O)CCC(C)C)[C@@H]3OC(C)=O)OC[C@@H](O)[C@@H]2O)c(C)c1 (stereo partly specified)	2.77 µM	22 µM	2.41 µM	20.3 µM	< 0.01 µM	0.0183 µM	0.247 µM	19.9 µM	1.52 µM	21.9 µM	0.58 µM	18.5 µM	< 0.01 µM	0.183 µM	< 0.01 µM	1.18 µM	< 0.01 µM	2.4 µM	4.79 µM	31.2 µM
O=C1NC(=O)/C(=C/C=C/c2ccccc2)S1	2.88 µM	33.1 µM	1.95 µM	11.1 µM	0.999 µM	14.7 µM	12.2 µM	57.5 µM	3.76 µM	36.6 µM	14.1 µM	> 100 µM	11.2 µM	> 59.1 µM	0.46 µM	8.86 µM	19.4 µM	> 100 µM	2.87 µM	> 100 µM
